According to US20260109690A1, “HDAC6 INHIBITORS AND METHOD OF THEIR USE” (Baerenkraft Therapeutics, LLC., priority 2024, published 2026):
Structures can show the parent of a compound that is named as a salt.

Target: T1, HDAC6 (Homo sapiens, UniProt Q9UBN7)
T1 sequence (Q9UBN7 1-1215): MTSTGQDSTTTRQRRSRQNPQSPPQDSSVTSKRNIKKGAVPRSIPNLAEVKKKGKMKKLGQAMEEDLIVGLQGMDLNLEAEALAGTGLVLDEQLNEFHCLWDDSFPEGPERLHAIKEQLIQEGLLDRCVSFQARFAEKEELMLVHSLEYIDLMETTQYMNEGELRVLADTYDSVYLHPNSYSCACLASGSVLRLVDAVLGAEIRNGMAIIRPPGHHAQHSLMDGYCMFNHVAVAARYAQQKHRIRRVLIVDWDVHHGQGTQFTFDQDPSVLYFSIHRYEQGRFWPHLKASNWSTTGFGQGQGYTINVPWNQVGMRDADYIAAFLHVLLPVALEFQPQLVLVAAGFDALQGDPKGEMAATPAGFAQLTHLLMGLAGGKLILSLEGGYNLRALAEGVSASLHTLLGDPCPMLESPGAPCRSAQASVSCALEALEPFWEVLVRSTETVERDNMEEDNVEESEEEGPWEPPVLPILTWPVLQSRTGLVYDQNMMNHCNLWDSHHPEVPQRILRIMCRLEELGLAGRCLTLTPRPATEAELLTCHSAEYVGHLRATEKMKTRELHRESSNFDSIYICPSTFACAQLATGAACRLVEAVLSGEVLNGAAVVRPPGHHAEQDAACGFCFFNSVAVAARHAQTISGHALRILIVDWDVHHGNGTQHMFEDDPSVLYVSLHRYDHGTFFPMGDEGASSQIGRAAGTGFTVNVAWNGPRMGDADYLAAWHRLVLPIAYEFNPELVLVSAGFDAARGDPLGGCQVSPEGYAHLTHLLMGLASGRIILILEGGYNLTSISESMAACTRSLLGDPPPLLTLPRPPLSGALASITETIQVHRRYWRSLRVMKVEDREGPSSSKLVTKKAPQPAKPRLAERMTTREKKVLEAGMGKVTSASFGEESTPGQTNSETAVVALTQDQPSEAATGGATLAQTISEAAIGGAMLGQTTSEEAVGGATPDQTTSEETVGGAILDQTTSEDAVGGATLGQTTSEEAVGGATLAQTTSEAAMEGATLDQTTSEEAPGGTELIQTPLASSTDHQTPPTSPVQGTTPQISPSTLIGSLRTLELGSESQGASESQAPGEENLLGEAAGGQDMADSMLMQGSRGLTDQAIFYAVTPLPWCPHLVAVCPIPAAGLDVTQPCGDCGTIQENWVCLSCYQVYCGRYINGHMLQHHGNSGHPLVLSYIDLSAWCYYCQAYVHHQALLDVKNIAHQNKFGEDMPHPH
Assay: Biochemical HDAC6 inhibitory activity assay
Details: 10-dose IC50 mode, in singlet, 3-fold serial dilution starting at 1 μM; read-out: HDAC6 IC50

IC50, 0.016 µM:
C[C@H]1CN(Cc2ccc(Nc3nccc(-c4ccc(C(=O)NO)cc4)n3)cc2F)CCO1 [Compound I-15, (S)-4-(2-((3-fluoro-4-((2-methylmorpholino)methyl)phenyl)amino)pyrimidin-4-yl)-N-hydroxybenzamide]

Same assay, conditions: read-out: HDAC6 IC50

IC50, > 100 µM:
N#CNC(=O)c1ccc(-c2ccnc(Nc3ccc(C(=O)N4CCOCC4)c(F)c3)n2)cc1 [Compound I-2, N-cyano-4-(2-((3-fluoro-4-(morpholine-4-carbonyl)phenyl)amino)pyrimidin-4-yl)benzamide]
CCNNC(=O)c1ccc(-c2nc(N3CCOCC3)ncc2Cl)cc1 [Compound I-22, 4-(5-chloro-2-morpholinopyrimidin-4-yl)-N′-ethylbenzohydrazide]
CCNNC(=O)c1ccc(-c2nc(N3CCC4(CC3)COC4)ncc2Cl)cc1 [Compound I-24, 4-(5-chloro-2-(2-oxa-7-azaspiro[3.5]nonan-7-yl)pyrimidin-4-yl)-N′-ethylbenzohydrazide]

IC50, 1 to 10 µM:
Cc1cc(-c2ccnc(Nc3ccc(N4CCOC(C)C4)c(F)c3)n2)ccc1C(=O)NO (stereo not drawn) [Compound I-12, 4-(2-((3-fluoro-4-(2-methylmorpholino)phenyl)amino)pyrimidin-4-yl)-N-hydroxy-2-methylbenzamide]
CCNNC(=O)c1ccc(-c2ccnc(NC(=O)N3CCOCC3)n2)cc1 [Compound I-20, N-(4-(4-(2-ethylhydrazine-1-carbonyl)phenyl)pyrimidin-2-yl)morpholine-4-carboxamide]
C[C@H]1CN(Cc2ccc(Nc3nccc(-c4ccc(-c5nnc(C(F)F)o5)cc4)n3)cc2F)CCO1 [Compound I-30, (S)-4-(4-(5-(difluoromethyl)-1,3,4-oxadiazol-2-yl)phenyl)-N-(3-fluoro-4-((2-methylmorpholino)methyl)phenyl)pyrimidin-2-amine]
C[C@@H]1CN(Cc2ccc(Nc3nccc(-c4ccc(-c5nnc(C(F)F)o5)cc4)n3)cc2F)CCO1 [Compound I-32, (R)-4-(4-(5-(difluoromethyl)-1,3,4-oxadiazol-2-yl)phenyl)-N-(3-fluoro-4-((2-methylmorpholino)methyl)phenyl)pyrimidin-2-amine TFA salt]
C[C@H]1CN(Cc2ccc(Nc3nccc(-c4ccc(-c5nnc(C(F)F)o5)cn4)n3)cc2F)CCO1 [Compound I-34, (S)-4-(5-(5-(difluoromethyl)-1,3,4-oxadiazol-2-yl)pyridin-2-yl)-N-(3-fluoro-4-((2-methylmorpholino)methyl)phenyl)pyrimidin-2-amine]
C[C@H]1CN(Cc2ccc(-c3ccnc(Nc4ccc(-c5nnc(C(F)F)o5)cc4F)n3)c(F)c2)CCO1 [Compound I-36, (S)-N-(4-(5-(difluoromethyl)-1,3,4-oxadiazol-2-yl)-2-fluorophenyl)-4-(2-fluoro-4-((2-methylmorpholino)methyl)phenyl)pyrimidin-2-amine]
C[C@H]1CN(c2ccc(Nc3nccc(-c4ccc(-c5nnc(C(F)F)o5)cn4)n3)cc2F)CCO1 [Compound I-38, (S)-4-(5-(5-(difluoromethyl)-1,3,4-oxadiazol-2-yl)pyridin-2-yl)-N-(3-fluoro-4-(2-methylmorpholino)phenyl)pyrimidin-2-amine]
C[C@@H]1CN(c2ccc(Nc3nccc(-c4ccc(-c5nnc(C(F)F)o5)cn4)n3)cc2F)CCO1 [Compound I-39, (R)-4-(5-(5-(difluoromethyl)-1,3,4-oxadiazol-2-yl)pyridin-2-yl)-N-(3-fluoro-4-(2-methylmorpholino)phenyl)pyrimidin-2-amine]
Fc1cc(Nc2nccc(-c3ccc(-c4nnc(C(F)F)o4)cn3)n2)ccc1N1CCOCC1 [Compound I-40, 4-(5-(5-(difluoromethyl)-1,3,4-oxadiazol-2-yl)pyridin-2-yl)-N-(3-fluoro-4-morpholinophenyl)pyrimidin-2-amine]

IC50, < 1 µM:
O=C(NO)c1ccc(-c2ccnc(Nc3ccc(C(=O)N4CCOCC4)c(F)c3)n2)cc1 [Compound I-1, 4-(2-((3-fluoro-4-(morpholine-4-carbonyl)phenyl)amino)pyrimidin-4-yl)-N-hydroxybenzamide]
CC1CCN(C(=O)c2ccc(Nc3nccc(-c4ccc(C(=O)NO)cc4)n3)cc2F)CC1 [Compound I-3, 4-(2-((3-fluoro-4-(4-methylpiperidine-1-carbonyl)phenyl)amino)pyrimidin-4-yl)-N-hydroxybenzamide]
CN1CCN(C(=O)c2ccc(Nc3nccc(-c4ccc(C(=O)NO)cc4)n3)cc2F)CC1 [Compound I-4, 4-(2-((3-fluoro-4-(4-methylpiperazine-1-carbonyl)phenyl)amino)pyrimidin-4-yl)-N-hydroxybenzamide]
CC1CCN(Cc2ccc(Nc3nccc(-c4ccc(C(=O)NO)cc4)n3)cc2F)CC1 [Compound I-6, 4-(2-((3-fluoro-4-((4-methylpiperidin-1-yl)methyl)phenyl)amino)pyrimidin-4-yl)-N-hydroxybenzamide]
CC(c1ccc(Nc2nccc(-c3ccc(C(=O)NO)cc3)n2)cc1F)N1CCN(C)CC1 (stereo not drawn) [Compound I-10, 4-(2-((3-fluoro-4-(1-(4-methylpiperazin-1-yl)ethyl)phenyl)amino)pyrimidin-4-yl)-N-hydroxybenzamide]
CC1CN(c2ccc(Nc3nccc(-c4ccc(C(=O)NO)cc4)n3)cc2F)CCO1 (stereo not drawn) [Compound I-11, 4-(2-((3-fluoro-4-(2-methylmorpholino)phenyl)amino)pyrimidin-4-yl)-N-hydroxybenzamide]
CC1CN(C(C)c2ccc(Nc3nccc(-c4ccc(C(=O)NO)cc4)n3)cc2F)CCO1 (stereo not drawn) [Compound I-13, 4-(2-((3-fluoro-4-(1-(2-methylmorpholino)ethyl)phenyl)amino)pyrimidin-4-yl)-N-hydroxybenzamide]
CC1CN(CC(=O)Nc2nccc(-c3ccc(C(=O)NO)cc3)n2)CCO1 (stereo not drawn) [Compound I-14, N-hydroxy-4-(2-(2-(2-methylmorpholino)acetamido)pyrimidin-4-yl)benzamide]
C[C@H]1CN(Cc2ccc(Nc3nccc(-c4ccc(C(=O)NO)cc4)n3)cc2F)CCO1 [Compound I-15, (S)-4-(2-((3-fluoro-4-((2-methylmorpholino)methyl)phenyl)amino)pyrimidin-4-yl)-N-hydroxybenzamide]
O=C(NO)c1ccc(-c2nc(Nc3ccc(C(=O)N4CCOCC4)c(F)c3)ncc2Cl)cc1 [Compound I-17, 4-(5-chloro-2-((3-fluoro-4-(morpholine-4-carbonyl)phenyl)amino)pyrimidin-4-yl)-N-hydroxybenzamide]
CCNNC(=O)c1ccc(-c2ccnc(Nc3ccc(C(=O)N4CCOCC4)c(F)c3)n2)cc1 [Compound I-18, N′-ethyl-4-(2-((3-fluoro-4-(morpholine-4-carbonyl)phenyl)amino)pyrimidin-4-yl)benzohydrazide]
CCNNC(=O)c1ccc(-c2ccnc(Nc3ccc(C(=O)N4CCOCC4)cc3)n2)cc1 [Compound I-19, N′-ethyl-4-(2-((4-(morpholine-4-carbonyl)phenyl)amino)pyrimidin-4-yl)benzohydrazide]
CCNNC(=O)c1ccc(-c2ccnc(N3CCOCC3)n2)cc1 [Compound I-21, N′-ethyl-4-(2-morpholinopyrimidin-4-yl)benzohydrazide]
CCNNC(=O)c1ccc(-c2ccnc(N3CCC4(CC3)COC4)n2)cc1 [Compound I-23, 4-(2-(2-oxa-7-azaspiro[3.5]nonan-7-yl)pyrimidin-4-yl)-N′-ethylbenzohydrazide]
C[C@H]1CN(Cc2ccc(Nc3nccc(-c4ccc(-c5nnc(C(F)F)o5)cc4F)n3)cc2F)CCO1 [Compound I-31, (S)-4-(4-(5-(difluoromethyl)-1,3,4-oxadiazol-2-yl)-2-fluorophenyl)-N-(3-fluoro-4-((2-methylmorpholino)methyl)phenyl)pyrimidin-2-amine]
C[C@@H]1CN(Cc2ccc(Nc3nccc(-c4ccc(-c5nnc(C(F)F)o5)cc4F)n3)cc2F)CCO1 [Compound I-33, (R)-4-(4-(5-(difluoromethyl)-1,3,4-oxadiazol-2-yl)-2-fluorophenyl)-N-(3-fluoro-4-((2-methylmorpholino)methyl)phenyl)pyrimidin-2-amine]

IC50, 10 to 35 µM:
C[C@@H]1CN(Cc2ccc(Nc3nccc(-c4ccc(-c5nnc(C(F)F)o5)cn4)n3)cc2F)CCO1 [Compound I-35, (R)-4-(5-(5-(difluoromethyl)-1,3,4-oxadiazol-2-yl)pyridin-2-yl)-N-(3-fluoro-4-((2-methylmorpholino)methyl)phenyl)pyrimidin-2-amine]
